Assay results: patent US4395969A (priority 1981, dated 1983)
Like-named read-outs stand apart in the source and are kept apart here.

Experiments:
[1] = tested on: sucker and stickleback; conditions: in vivo
[2] = tested on: bridgelip sucker; set-up: species or system Catastomus columbianus; conditions: in vivo
[3] = tested on: steelhead trout; conditions: in vivo
[4] = tested on: salmonids
[5] = tested on: bridgelip sucker; assay: Selectivity and safety indices of salmonids versus the bridgelip sucker; type: in vivo, Catastomus columbianus; conditions: steelhead trout; 24 h
Description: Delineation bioassays determined primarily the LC50 and LC100 of sucker and stickleback and the LC0 and LC50 of salmonids.
The statistical LC1, LC50, and LC99 were interpolated and/or extrapolated using probit graph paper to approximate the LC0, LC50, and LC100 when the latter set of values was not closely determined by single concentrations in a series.
The approximate LC50 and LC100 of the target fishes (threespine and brook sticklebacks and bridgelip and white suckers) are tabulated in Table 1. The 96-hour selectivity and safety indices of selected species of salmonids versus the three-spine stickleback are tabulated in Table 3.
Threespine stickleback, brook stickleback, bridgelip sucker, white sucker, chinook salmon, coho salmon, sockeye salmon, kokanee, Kamloops trout, cutthroat trout, and brook trout were treated with various concentrations of 2, 2, 2, 1-tetrachloroethyl diethyl phosphate and at various temperatures to determine approximate selectivity and safety indices. The approximate LC50 and LC100 of the target fishes (threespine and brook sticklebacks and bridgelip and white suckers) are tabulated in Table 5. The 96-hour selectivity and safety indices of selected species of salmonids versus the threespine stickleback are tabulated in Table 7.

[6] = tested on: chinook salmon; conditions: in vivo
[7] = tested on: threespine stickleback; set-up: species or system Gasterosteus aculeatus; conditions: in vivo
[8] = in vivo; conditions: chinook salmon
[9] = tested on: threespine stickleback; set-up: species or system Gasterosteus aculeatus; conditions: in vivo, 5760 min
[10] = tested on: sucker and stickleback; conditions: cited from earlier work
[11] = tested on: carp; conditions: used in ponds; cited from earlier work
[12] = published literature; cited from earlier work

With `CCOP(=O)(OCC)OC(Cl)CCl` (stereo not shown) [1,2-dichloroethyl diethyl phosphate] the “selectivity/specificity for sucker and stickleback” value [1] was “extremely selective for suckers and stickleback”, the “activity and selectivity of the two chemicals” value [2] was “very similar” and the “concentration of 100% mortality of sucker” value [2] was 0.1 mg/L. The “concentration of almost 100% mortality of sucker” value [2] was 0.3 mg/L, the “concentration below which almost no mortality occurred in trout” value [3] was “below 3.0 mg/l” and the “concentration below which no mortality occurred in steelhead” value [3] was “below 5.0 mg/l”. The harm to salmonids ([4]; in vivo) was “harmless to salmonids”, the safety index [5] was 10 and the selectivity index [5] was 35.
In the case of `CCOP(=O)(OCC)OC(Cl)=C(Cl)Cl` [2,2,1-trichlorovinyl diethyl phosphate], the LC0 ([6]; chinook salmon) is reported as “about 16 μg/l”, the “activity relative to the dichloro-compounds” value [1] is reported as “about 100 times” and the LC50 [7] is reported as 0.008 µg/mL. The LC100 [7] was roughly 11 µg/L, the toxicity to stickleback [7] was “almost as toxic to stickleback as 2,2,2,1-tetrachloroethyl diethyl phosphate” and the LC50 [8] was 0.018 to 0.02 µg/mL.
With `CCOP(=O)(OCC)OC(=C(Cl)Cl)P(=O)(OCC)OCC` [2,2-dichloro-1-diethyl phosphonovinyl diethyl phosphate] the “Safety index (LC0/LC100)” value [9] was 0.9, the LC50 [7] was 0.008 µg/mL and the LC50 [8] was 0.018 to 0.02 µg/mL.
For `COP(=O)(OC)OC=C(Cl)Cl` [O,O-dimethyl O-(2,2-dichlorovinyl) phosphate], the “selectivity for stickleback or suckers” value ([10]; in vivo) is given as “no selectivity for stickleback or suckers”, the injury to carp [11] is given as “without injuring carp” and the carcinogenicity / residues [12] is given as “none suggest that DDVP is a carcinogen or concentrates residues”.
In the case of `O=C(O)C(Cl)Cl` [dichloroacetic acid, reference compound], the mortality [6] is reported as “suffered no mortalities”.
For `C=C(C)[C@H]1Cc2c(ccc3c2O[C@@H]2COc4cc(OC)c(OC)cc4[C@@H]2C3=O)O1` [rotenone], the “control of sucker and stickleback numbers by spot poisoning” value ([10]; background) is given as “ineffective in controlling sucker and stickleback numbers”.
For “O,O-diethyl S-(2,2-dichlorovinyl) thiophosphate”, the “selectivity/specificity for sucker and stickleback” value [1] was “extremely selective for suckers and stickleback”, the “activity and selectivity of the two chemicals” value [2] was “very similar” and the “concentration of 100% mortality of sucker” value [2] was 0.1 mg/L. For the same compound, the “concentration below which no mortality occurred in steelhead” value [3] was “below 1.0 mg/l” and the harm to salmonids ([4]; 24-hour bioassays, about 15 C) was “harmless to salmonids”.
